{
  "source": "patent EP0283349A1",
  "about": "“Process for obtaining tannic principles of vegetable origin, cosmetologic and pharmaceutical composition containing the tannic principle obtained by the process” (Lamaison, Jean-Louis, priority 1987, dated 1988)",
  "data": [
    {"target": "élastase pancréatique porcine (Sus scrofa, UniProt P00772)", "sequence (P00772 27-266)": "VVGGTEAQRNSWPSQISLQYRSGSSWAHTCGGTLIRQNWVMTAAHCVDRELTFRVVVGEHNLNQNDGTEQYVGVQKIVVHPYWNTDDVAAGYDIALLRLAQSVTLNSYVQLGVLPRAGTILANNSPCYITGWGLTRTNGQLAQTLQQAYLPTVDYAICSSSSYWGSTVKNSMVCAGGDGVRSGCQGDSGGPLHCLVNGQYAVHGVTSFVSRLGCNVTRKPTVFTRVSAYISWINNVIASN", "experiment": "Elastase inhibition (method of SHINOGI et al., substrate Boc-Ala-ONp)", "type": "biochemical", "conditions": "mass of inhibitor giving 50 % inhibition after 30 minutes; referred to the dry plant drug for plant extracts, real mass for defined principles", "protocol": "Les dosages d'activités inhibitrices de l'élastase, de la trypsine et de l'α-chymotrypsine ont été réalisés selon la méthode de SHINOGI et al. (1), la quantité d'inhibiteur étant adaptée de manière à obtenir une inhibition voisine de 50 % (I50) après 30 minutes, les extraits étant généralement préparés à partir de 0,5 g de poudre (250) de plante sèche dans 20 ml d'éthanol à 50 % V/V, les principes définis en solution à 1 mg/ml d'éthanol à 50 % V/V.", "units": {"I 50 Elas-tase": "µg"}, "values": [
      {"compound": "O=C(O)c1cc(O)c(O)c(O)c1", "note": "[Acide gallique]", "I 50 Elas-tase": 100},
      {"compound": "O=c1c(O[C@@H]2O[C@H](CO)[C@H](O)[C@H](O)[C@H]2O)c(-c2ccc(O)c(O)c2)oc2cc(O)cc(O)c12", "note": "[Hypéroside]", "I 50 Elas-tase": 275},
      {"compound": "O=c1c(O)c(-c2ccc(O)cc2O)oc2cc(O)cc(O)c12", "note": "[Morine]", "I 50 Elas-tase": 60},
      {"compound": "Hamamélitanin", "I 50 Elas-tase": 600},
      {"compound": "Catéchine-épicatéchine", "I 50 Elas-tase": 35},
      {"compound": "Acide tannique", "I 50 Elas-tase": 50},
      {"compound": "C[C@@H]1O[C@@H](OC[C@H]2O[C@@H](Oc3c(-c4ccc(O)c(O)c4)oc4cc(O)cc(O)c4c3=O)[C@H](O)[C@@H](O)[C@@H]2O)[C@H](O)[C@H](O)[C@H]1O", "note": "[Rutoside]", "I 50 Elas-tase": 150},
      {"compound": "O=c1c(O)c(-c2ccc(O[C@@H]3O[C@H](CO)[C@@H](O)[C@H](O)[C@H]3O)c(O)c2)oc2cc(O)cc(O)c12", "note": "[Quercétine 4'-Glucoside]", "I 50 Elas-tase": 250},
      {"compound": "Ethoxazo-rutine", "I 50 Elas-tase": 250}
    ]}
  ]
}
